Consider 8 molecules from paper PMC7580834, “Inhibition mechanism of naphthylphenylamine derivatives acting on the CDC25B dual phosphatase and analysis of the molecular processes involved in the high cytotoxicity exerted by one selected derivative in melanoma cells” (Journal of Enzyme Inhibition and Medicinal Chemistry, 2020).

Like-named read-outs stand apart in the source and are kept apart here. Residues, ends and D or L forms follow the SMILES beside them. *: point of attachment. Cbz = O=C(OCc1ccccc1)*; CH2F = FC*

Assay [1] addresses T1, OMFP-bound CDC25B-C473S (Homo sapiens, UniProt P30305, C487S).
T1 sequence (P30305 370-580 C487S): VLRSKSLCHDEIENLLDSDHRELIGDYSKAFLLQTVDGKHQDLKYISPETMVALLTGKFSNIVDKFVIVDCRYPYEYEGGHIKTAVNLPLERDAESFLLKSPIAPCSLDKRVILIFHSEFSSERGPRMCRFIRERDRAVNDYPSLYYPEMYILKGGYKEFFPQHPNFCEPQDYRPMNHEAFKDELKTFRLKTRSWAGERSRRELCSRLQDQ
Put plainly: Intrinsic fluorescence quenching of CDC25B-C473S in the presence of 5 µM OMFP (Stern-Volmer). In kind it is binding. The settings on record: reciprocal of KSV; presence of 5 µM OMFP; read-out: K′D of the complex, OMFP-bound CDC25B-C473S•inhibitor. The source says: (§1) The mutant form of CDC25B, carrying the C473S replacement (CDC25B-C473S), was obtained through site-directed mutagenesis of the CDC25B catalytic segment cloned in pET28a-CDC25B-cd. To this aim, the QuikChange site-directed mutagenesis kit (Stratagene, La Jolla, CA, USA) and the forward and reverse primers for C473S replacement (5′d-[…]-3′ and 5′d-[…]-3′) were used. Positive clones were obtained, and the nucleotide sequencing of the mutagenised segment excluded the presence of undesired mutations. The new vector was called pET28a-CDC25B-C473S-cd. The expression of the new vector and the purification of the recombinant form of CDC25B-C473S catalytic domain were carried out as previously reported for wild-type CDC25B catalytic domain[18], and similar yields were obtained. As expected, the mutant enzyme was unable to hydrolyse the synthetic substrate OMFP, when its activity was checked with the fluorimetric assay method previously described.
(§2) Fluorescence spectra were recorded at 20 °C using a computer-assisted Cary Eclipse spectrofluorimeter (Varian, Palo Alto, CA, USA) equipped with an electronic temperature controller. The excitation wavelength was set at 280 nm and the excitation and emission slits were set at 10 and 20 nm, respectively. A 500 µL final volume of a 0.2 µM solution of CDC25B or CDC25B-C473S dissolved in 20 mM Tris•HCl, pH 7.8, 0.5 mM TCEP was directly prepared in the fluorimetric cuvette in the absence or in the presence of OMFP and/or some NPA derivatives. Serial pre-dilutions of the NPA derivatives or OMFP at increasing concentration were prepared in DMSO or methanol, respectively. Alongside, a convenient amount of the enzyme pre-dilution was prepared just before its usage for the experiment and stored on ice. When the combined effect of NPA derivative and OMFP was investigated, two enzyme pre-dilutions were prepared in the absence or in the presence of 5 µM OMFP. In order to evaluate the specific effect produced by any addition of solvent/ligand on the intrinsic fluorescence of the enzyme, 495 µL of the enzyme pre-dilution were placed in the fluorimetric cuvette and the relative spectrum was recorded; after the addition of 5 µL of each pre-dilution of solvent/ligand and fast mixing, the spectrum was recorded again. This procedure, repeated for each experimental point, allowed a normalisation of the specific effects produced by solvent/ligands. Furthermore, a correction was also applied for the little inner-filter effect due to the absorbance at 280 nm of the NPA derivative used at different concentrations; on the other hand, no correction was necessary for OMFP. All spectra, recorded at a scan speed of 120 nm/min, were normalised and corrected.

For assay [2], the target named is T2, CDC25B (Homo sapiens, UniProt P30305).
T2 sequence (P30305 1-580): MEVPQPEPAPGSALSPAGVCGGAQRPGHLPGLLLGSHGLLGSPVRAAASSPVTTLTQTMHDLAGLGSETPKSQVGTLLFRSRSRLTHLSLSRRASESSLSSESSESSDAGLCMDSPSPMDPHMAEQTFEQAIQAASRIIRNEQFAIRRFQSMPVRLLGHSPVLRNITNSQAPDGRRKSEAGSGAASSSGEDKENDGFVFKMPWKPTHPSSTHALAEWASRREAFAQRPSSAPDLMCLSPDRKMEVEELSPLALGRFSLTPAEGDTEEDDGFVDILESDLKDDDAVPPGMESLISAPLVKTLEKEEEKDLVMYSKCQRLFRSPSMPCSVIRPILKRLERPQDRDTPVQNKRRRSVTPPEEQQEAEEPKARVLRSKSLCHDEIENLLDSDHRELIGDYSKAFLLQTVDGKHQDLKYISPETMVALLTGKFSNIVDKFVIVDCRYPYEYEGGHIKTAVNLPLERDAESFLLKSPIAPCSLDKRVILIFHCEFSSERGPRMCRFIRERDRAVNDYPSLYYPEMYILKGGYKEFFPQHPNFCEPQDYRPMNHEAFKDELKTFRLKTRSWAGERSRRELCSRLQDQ
Kind of assay: Kinetic studies of CDC25B phosphatase inhibition (OMFP substrate). The class given is biochemical. The note with it: putative from Lineweaver-Burk plots (ref 18), confirmed by the fluorescence studies of this work.

For assay [3], the target named is T3, CDC25B (Homo sapiens, UniProt P30305).
T3 sequence (P30305 377-551 isoform P30305-2 limits assumed): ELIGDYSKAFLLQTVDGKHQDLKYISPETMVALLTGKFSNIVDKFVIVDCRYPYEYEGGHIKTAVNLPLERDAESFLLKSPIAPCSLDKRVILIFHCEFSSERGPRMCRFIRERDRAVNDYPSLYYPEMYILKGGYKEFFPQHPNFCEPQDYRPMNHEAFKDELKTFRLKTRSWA
Put plainly: Intrinsic fluorescence quenching of recombinant CDC25B catalytic domain (Stern-Volmer). The settings on record: for KSV (Stern-Volmer constant): 0.2 µM wild-type CDC25B, emission 357 nm, 20 °C, no OMFP; for K′D/Ki ratio: K′D of free CDC25B•inhibitor over Ki; for Kd: reciprocal of KSV, inhibitor concentration leading to 50% quenching of CDC25B emission, read-out: K′D of the complex, Free CDC25B•inhibitor. In kind it is binding. The protocol:
as §2

The test system of assay [4] is OMFP-bound CDC25B-C473S. Put plainly: Intrinsic fluorescence quenching of CDC25B-C473S in the presence of 5 µM OMFP (Stern-Volmer). In kind it is binding. The note with it: for KSV (Stern-Volmer constant): 0.2 µM CDC25B-C473S, in the presence of 5 µM OMFP; for K′D/Ki ratio: K′D of OMFP-bound CDC25B-C473S•inhibitor over Ki.
Source text: as §1, §2

In assay [5] the target is T2, CDC25B. The note with it: cited from earlier work.
Assay [6] relates to some tumour cells. Also noted: method as in PMID 22524450. The note with it: 200 µM; cited from earlier work.
Assay [7] relates to A2058 cells. Kind of assay: Apoptosis by cytofluorimetry after PI incorporation (subdiploid DNA content). In kind it is cell-based, human. The settings on record: 100 µM Z-VAD-FMK plus 10 µM 4a, 48 h. The protocol:
(§3) The human melanoma cell lines A375 and A2058, deriving from a primary tumour or lymph nodal metastasis, respectively, were kindly provided from CEINGE (Naples, Italy). Cells were grown in DMEM supplemented with 10% FBS, 2 mM L-glutamine, 100 IU/mL penicillin G and 100 µg/mL streptomycin in humidified incubator at 37 °C under 5% CO2 atmosphere. The cell line BJ-5ta, a human skin fibroblast immortalised with the human telomerase reverse transcriptase[30] was cultured in a 4:1 mixture of DMEM and Medium 199 supplemented with 4 mM L-glutamine, 4.5 g/L glucose, 1.5 g/L sodium bicarbonate, 10% FBS, 100 IU/mL penicillin G, […] streptomycin in humidified incubator at 37 °C under 5% CO2 atmosphere. All cells were split and seeded every 3 days and used during their exponential phase of growth. Cell treatments were usually carried out after 24 h from plating.
(§4) Cytofluorimetric analysis was used to determine the number of apoptotic nuclei essentially as previously described. Briefly, cells were seeded into six-well plates at 3 × 10^5 cells/well and after 24 h were treated with 4a or 0.5% (v/v) DMSO and incubated for different times. Then, cells were harvested with trypsin, and centrifuged, and the pellets were resuspended in 200 µL of a hypotonic lysis solution containing 50 µg/mL PI. After incubation at 4 °C for 30 min, cells were analysed with a FACScan flow cytometer (Becton Dickinson, Franklin Lakes, NJ, USA) to evaluate the presence of nuclei with DNA content lower than diploid.

In assay [8] the test system is A375 cells. The description is as above. The class given is cell-based, human. The note with it: 100 µM Z-VAD-FMK plus 10 µM 4a, 48 h. The protocol: as §3, §4

With `Nc1cccc2c(Nc3cccc(C(=O)O)c3)cccc12` [7j], in assay [1], the Kd came out at 15.1 µM. Further, the Inhibition mechanism result in assay [2] is given as “noncompetitive”. Further, in assay [3], the “KSV (Stern-Volmer constant)” value stood at 0.129 µM⁻¹, the “K′D/Ki ratio” value is listed as 9.7 and the Kd worked out at 7.8 µM.
Regarding `CCOC(=O)c1cccc(Nc2cccc3ccccc23)c1` [compound 4], the Kd in assay [1] came out at 43 µM. For the same molecule, in assay [4], the “KSV (Stern-Volmer constant)” value turned out to be 0.023 µM⁻¹ and the “K′D/Ki ratio” value turned out to be 5.9. For the same molecule, the Inhibition mechanism result in assay [2] is recorded as “uncompetitive”. In assay [3], the “KSV (Stern-Volmer constant)” value was 0.016 µM⁻¹ and the Kd is > 50 µM.
Consider `Nc1ccc(Nc2cccc(C(=O)O)c2)c2ccccc12` [7i], for which the Inhibition mechanism result in assay [2] is “noncompetitive”. In assay [3], the “KSV (Stern-Volmer constant)” value was 0.069 µM⁻¹, the “K′D/Ki ratio” value is 10.4 and the Kd worked out at 14.5 µM.
Turning to `COc1ccc2c(c1)Oc1cc(OP(=O)(O)O)ccc1C21OC(=O)c2ccccc21` (stereo not drawn) [OMFP, O-methylfluorescein phosphate], the Km in assay [5] (read-out: KM of the wild type CDC25B for the substrate) is 2.7 ± 0.2 µM.
Take `O=C(O)c1ccc(C(=O)c2ccccc2C(=O)O)cc1C(=O)O` [NSC28620]: the Inhibition mechanism entry in assay [5] (lead compound) is “reversible competitive”. Also, the “cell growth rate of some tumour cells” value in assay [6] is listed as “reduced”.
For the molecule `CCOC(=O)c1ccccc1Nc1cccc2ccccc12` [compound 3], the Kd is 24 µM in assay [1] and > 50 µM in assay [3]. Further, the “KSV (Stern-Volmer constant)” value in assay [4] came to 0.042 µM⁻¹; in assay [3], 0.011 µM⁻¹. In addition, the “K′D/Ki ratio” value in assay [4] turned out to be 8.6. The Inhibition mechanism result in assay [2] is on record as “uncompetitive”.
As for `COC(=O)C[C@H](NC(=O)[C@H](C)NC(=O)[C@@H](NC(=O)OCc1ccccc1)C(C)C)C(=O)CF` [Z-VAD-FMK, reference compound] (Cbz-Val-Ala-Asp(OMe)-CH2F), the “apoptosis level induced by 4a upon exposure to the caspase inhibitor” value in assay [7] and in assay [8] was “partial but significant reduction” each time.
With `O=C(O)c1ccccc1Nc1ccc(O)c2ccccc12` [6e], the Inhibition mechanism result in assay [2] is “noncompetitive”. For the same molecule, in assay [3], the “KSV (Stern-Volmer constant)” value was 0.035 µM⁻¹, the “K′D/Ki ratio” value is 10.6 and the Kd came out at 28.6 µM.

A word on the Km: it is the substrate concentration at which the rate is half of its maximum.
